Key:
IRE1/XBP1s = experiment: XBP1 endoplasmic reticulum stress reporter assay (CMV-XBP-GLuc); type: cell-based, human; details: Figure S5; for Mean diff, MG132 vs. RUN compound (log2-transformed values) / Mean diff, DMSO vs. treatment (log2-transformed values): Dunnett's multiple comparisons test; for Mean 2 (mean of log2-transformed values, treatment; DMSO = 0): N = 3
From the text: Next, we investigated whether the selected RUN compounds activate the NFE2L1 transcriptional program without triggering the unfolded protein response (UPR), a crucial cellular process induced by the accumulation of unfolded proteins in the endoplasmic reticulum (ER), potentially leading to ER stress. To monitor this, an alternative reporter was used to assess the activation of IRE1/XBP1s.[47] IRE1 is a bifunctional serine/threonine kinase and endoribonuclease embedded in the ER membrane, playing a central role in UPR signaling. Its RNase activity facilitates the splicing of X-box binding protein 1 (XBP1) mRNA. The spliced XBP1 acts as a transcription factor, promoting the re-establishment of ER homeostasis by upregulating genes involved in the ER-associated degradation (ERAD) pathway.[48–50] The reporter contains Gaussia luciferase positioned out of frame downstream of the XBP1 splice site, ensuring that active luciferase translation occurs only in the presence of ER stress.[51,52] Cells transfected with this reporter were treated with RUN compounds at 1, 5, and 10 μM, and luciferase activity was measured.
Figure S5: Impact of RUN compounds on ER stress-induced activation of the XBP1 reporter.
HEK293 cells were transfected with the CMV-XBP-GLuc reporter plasmid and allowed to stabilize overnight. Following stabilization, the cells were treated with MG132 or various concentrations of the test compounds (1, 2, 3, 5, 7.5, and 10 µM) for 16 hours. The Gaussia luciferase signal, which reflects XBP1 mRNA splicing, was adjusted based on cell viability as measured by the alamarBlue assay. Data are represented as Geomean ± GeoSD of three independent experiments ( n = 3. Statistical comparison of MG132 and RUN compounds vs DMSO and RUN compounds vs MG132 was performed on log2-transformed values using two-way repeated-measures ANOVA with Geisser –Greenhouse correction, followed by Dunnett’s multiple comparisons test with individual variances computed for each comparison. Results of the analysis are shown in Supplementary Table S15. […]
GraphPad Prism (v 10.6.1).
2.8 XBP1-endoplasmic reticulum (ER) stress reporter assay
HEK293 cells were seeded in 6-well plates and incubated for 24 hours before being transfected with a plasmid containing the CMV-XBP-Gluc reporter using Lipofectamine 2000.(4) After 6 hours, the transfected cells were subsequently transferred to 384-well plates, stabilized overnight, and treated with the proteasome inhibitor and ER stress inducer MG132 and/or various concentrations of RUN compounds (1, 5, and 10 µM) or vehicle (DMSO) for 16 hours. Luciferase activity was normalized to cell viability, which was assessed using the alamarBlue assay. The results are expressed as the fold change compared with the DMSO control, with the experiment conducted in biological triplicate. […]

[1] = test system: chymotrypsin-like activity of the 26S proteasome; experiment: Proteasome activity assay in SH-SY5Y cell lysates; type: cell-based, human; details: for Geometric mean, Treatment (Control = 1): SH-SY5Y, Figure S6
Method: Building on previous findings, we investigated how selected RUN compounds influence proteasomal function itself. Specifically, we examined the chymotrypsin-like activity of the 26S proteasome following a 16 hour treatment with 7.5 μM RUN compounds in the HEK293 cell line. […] In addition, two other cell lines, MCF7 and SH-SY5Y, were measured (see the SI, Fig. S6).
Figure S6: RUN compounds enhance chymotrypsin-like activity of the 26S proteasome in […]
Cells were treated with 5 µM RUN compounds for 16 hours, with DMSO (0.5%) as the vehicle control. Proteasome chymotrypsin-like activity was measured in cell lysates at 37 °C. Four independent experiments were conducted. Statistical analysis was performed using ratio paired t-tests corrected for multiple comparisons with the Holm-Šídák's method (α = 0.05). Detailed results of the analysis are shown in Supplementary Table S16. […]
2.7 Proteasome activity assay
The corresponding cell lines (HEK293, MCF7, or SH-SY5Y) were seeded into 6-well plates and allowed to adhere overnight under standard culture conditions. On the following day, HEK293 cells were treated with 7.5 µM RUN compounds, whereas MCF7 and SH-SY5Y cells were treated with 5 µM RUN compounds, for 16 hours each. After treatment, cells were harvested, resuspended in lysis buffer (50 mM HEPES, pH 7.5; 5 mM EDTA; 150 mM NaCl; 2 mM ATP; 1% Triton), and centrifuged at 15,000 rpm for 15 minutes at 4 °C. The resulting lysates (25 µg total protein) were incubated with 200 µM of the fluorogenic substrate Suc-Leu-Leu-Val-Tyr-AMC (Bachem, I1395) in assay buffer (50 mM Tris, pH 8.0; 10 mM MgCl₂; 1 mM ATP; 1 mM DTT) at 37 °C. Free AMC release was detected by measuring fluorescence at 360/460 nm. Results of RUN compounds were compared to the DMSO control using a ratio paired t-test corrected for multiple comparisons with the Holm-Šídák's method (α = 0.05) in GraphPad Prism (v 10.6.1).
2.8 XBP1-endoplasmic reticulum (ER) stress reporter assay […]
Two sets of comparisons: 1) […]
treatment with MG132 inhibitor or RUN compounds with DMSO control, 2) RUN compounds vs MG132, were done by two-way repeated-measures ANOVA with Geisser–Greenhouse correction, followed by Dunnett’s multiple comparisons test with individual variances in […]
HCT116 parental cells (WT) and two independent DDI2 knockout clones (KO 04 and KO 11), in which NFE2L1 activation is impaired, were transiently transfected with plasmids encoding either a non-aggregating EGFP-HttQ23 or an aggregation-prone EGFP-HttQ74 construct using Lipofectamine 2000 (Thermo Fisher Scientific) according to the manufacturer’s

COc1ccc(/C=C2\CC(NC(=O)c3ccccn3)C/C(=C\c3ccc(OC)c(OC)c3)C2=O)cc1OC (stereo not shown) [RUN-94]
Mean diff, MG132 vs. RUN compound (log2-transformed values) (IRE1/XBP1s; 1 µM): 2.183 | Mean 2 (mean of log2-transformed values, treatment; DMSO = 0) (IRE1/XBP1s; 1 µM): -0.07708 | Mean diff, MG132 vs. RUN compound (log2-transformed values) (IRE1/XBP1s; 5 µM): 1.118 | Mean 2 (mean of log2-transformed values, treatment; DMSO = 0) (IRE1/XBP1s; 5 µM): 1.607 | Mean diff, MG132 vs. RUN compound (log2-transformed values) (IRE1/XBP1s; 10 uM): 2.807 | Mean 2 (mean of log2-transformed values, treatment; DMSO = 0) (IRE1/XBP1s; 10 uM): 1.15 | Mean diff, DMSO vs. treatment (log2-transformed values) (IRE1/XBP1s; DMSO vs. 1 µM): 0.07708 | Mean diff, DMSO vs. treatment (log2-transformed values) (IRE1/XBP1s; DMSO vs. 5 µM): -1.607 | Mean diff, DMSO vs. treatment (log2-transformed values) (IRE1/XBP1s; DMSO vs. 10 uM): -1.15 | Geometric mean, Treatment (Control = 1) [1]: 1.50

COc1ccc(/C=C2\CC(NC(=O)C3CCCC3)C/C(=C\c3ccc(OC)c(OC)c3)C2=O)cc1OC (stereo not shown) [RUN-89]
Mean diff, MG132 vs. RUN compound (log2-transformed values) (IRE1/XBP1s; 1 µM): 1.977 | Mean 2 (mean of log2-transformed values, treatment; DMSO = 0) (IRE1/XBP1s; 1 µM): 0.1287 | Mean diff, MG132 vs. RUN compound (log2-transformed values) (IRE1/XBP1s; 5 µM): 1.754 | Mean 2 (mean of log2-transformed values, treatment; DMSO = 0) (IRE1/XBP1s; 5 µM): 0.9716 | Mean diff, MG132 vs. RUN compound (log2-transformed values) (IRE1/XBP1s; 10 uM): 2.213 | Mean 2 (mean of log2-transformed values, treatment; DMSO = 0) (IRE1/XBP1s; 10 uM): 1.744 | Mean diff, DMSO vs. treatment (log2-transformed values) (IRE1/XBP1s; DMSO vs. 1 µM): -0.1287 | Mean diff, DMSO vs. treatment (log2-transformed values) (IRE1/XBP1s; DMSO vs. 5 µM): -0.9716 | Mean diff, DMSO vs. treatment (log2-transformed values) (IRE1/XBP1s; DMSO vs. 10 uM): -1.744 | Proteasome chymotrypsin-like activity in SH-SY5Y cells ([1]; 5 μM, 16 h): higher median for RUN-89 without reaching statistical significance | Geometric mean, Treatment (Control = 1) [1]: 1.88

COc1ccc(/C=C2\CC(N)C/C(=C\c3ccc(OC)c(OC)c3)C2=O)cc1OC (stereo not shown) [RUN-81]
Mean diff, MG132 vs. RUN compound (log2-transformed values) (IRE1/XBP1s; 1 µM): 2.079 | Mean 2 (mean of log2-transformed values, treatment; DMSO = 0) (IRE1/XBP1s; 1 µM): 0.02701 | Mean diff, MG132 vs. RUN compound (log2-transformed values) (IRE1/XBP1s; 5 µM): 2.509 | Mean 2 (mean of log2-transformed values, treatment; DMSO = 0) (IRE1/XBP1s; 5 µM): 0.216 | Mean diff, MG132 vs. RUN compound (log2-transformed values) (IRE1/XBP1s; 10 uM): 3.74 | Mean 2 (mean of log2-transformed values, treatment; DMSO = 0) (IRE1/XBP1s; 10 uM): 0.2168 | Mean diff, DMSO vs. treatment (log2-transformed values) (IRE1/XBP1s; DMSO vs. 1 µM): -0.02701 | Mean diff, DMSO vs. treatment (log2-transformed values) (IRE1/XBP1s; DMSO vs. 5 µM): -0.216 | Mean diff, DMSO vs. treatment (log2-transformed values) (IRE1/XBP1s; DMSO vs. 10 uM): -0.2168 | Geometric mean, Treatment (Control = 1) [1]: 1.28
